Measurements: US20070116781A1, “Hydrogen Cyanamide Pesticide Formulations” (priority 2005, published 2007)

Key:
Dorylaimida nematodes = test: Effect on beneficial nematodes in covered pots of silt loam; assay type: in vivo
Experimental: In this study, the soil was naturally infested with four species of nematodes, two of which were deleterious and two beneficial, and observations were made of both the nematode survival and the growth of the soybean plants.
Stock solutions of hydrogen cyanamide at 1.0% by weight and propionic acid at 5.0% by weight, both in water, were prepared, the hydrogen cyanamide from a phosphate-buffered 50% aqueous solution. Planting pots measuring 10 cm in diameter, each containing 1 kg of soil, were used. The soil was silt loam from a cotton field, pH 6.2, CEC<10 meq/100 g soil, organic matter<1.0%. The treatment chemicals were combined in various dilutions such that 100 mL of the combined dilutions contained the desired amount of each chemical for each test. The combined dilutions were then applied to the soil surface in each pot, at 100 mL of combined dilution per pot. The dilutions were selected to achieve target application rates expressed in milligrams of the treatment chemical per kilogram of soil, with 1 milligram of treatment chemical per kilogram of soil being approximately equal to 2 kilograms of the chemical per hectare of soil or 2 pounds of the chemical per acre of soil.
Immediately after the treatment chemicals were applied, each pot was covered by a thick (1.5 mil), clear, low-density polyethylene bag. After twelve days, the bags were removed and soil samples were taken from each pot for nematological analysis by the salad bowl technique of Rodriguez-Kabana, R., and M. H. Pope, Nematropica, 11: 175-186 (1981). The results of these analyses are listed in Table I as pre-plant test results. The results for the two deleterious nematodes are also shown as plots of the number of nematodes vs. the hydrogen cyanamide application rate in FIGS. 1 and 2.
After the polyethylene bags were removed, each pot was planted with Hutcheson soybean seeds at 5 seeds per pot, and the seeds were allowed to germinate and the plants to grow for 45 days. The resulting plants were then removed from the pots, the root systems were washed, and the number of plants in each pot was determined. The weights of both fresh shoots and roots were also determined as well as the shoot height and the relative health of the root system, using a subjective index. Soil samples were also collected, and the soil and roots were incubated to determine nematode populations. Treatments were arranged in randomized complete block design with seven replications per treatment, and statistical evaluation of the data was performed with analyses of variance (ANOVA) and standard regression procedures. Fischer's Least Significant Difference at p 0.05 was calculated when appropriate. The results of these tests are listed as final test results in Tables II, III, and IV, with nematode populations in the soil listed in Table II, the nematode populations in the root systems in Table III, and the plant and root parameters of the soybean shoots in Table IV.

yellow nutsedge = test: Herbicidal activity, cyanamide and propionic acid, pre-emergence, covered pots; assay type: in vivo, Cyperus esculentus
Experimental: The weeds used in these tests were grown from a standard weed seed pack of common annual and perennial weeds representing an extreme weed situation. The weeds included yellow nutsedge (Cyperus esculentus), crabgrass (Digitaria sanguinalis), pigweed (Amaranthus spp.), momingglory (Ipomoea spp.), sicklepod (Senna obtusifolia) and other annual weeds. Observations of the effects on the weed population as a whole were made, and individual observations were made for yellow nutsedge, crabgrass, and sicklepod. Stock solutions of hydrogen cyanamide at 1.25% by weight and propionic acid at 5.0% by weight, both in water, were prepared, the hydrogen cyanamide from a phosphate-buffered 50% aqueous solution. […] Data analyses were performed in the same manner as Example 1. The results expressed in weeds per pot are listed in Table V for all weeds, Table VI for yellow nutsedge, Table VII for crabgrass, and Table VIII for sicklepod, all at various application rates for both hydrogen cyanamide and propionic acid.

sicklepod = test: Herbicidal activity, cyanamide and citric acid, pre-emergence, covered pots; assay type: in vivo, Senna obtusifolia
Experimental: The weeds used in these tests were grown from a standard weed seed pack of common annual and perennial weeds representing an extreme weed situation. The weeds included crabgrass (Digitaria sanguinalis), yellow nutsedge (Cyperus esculentus), […] (Ipomoea spp.), pigweed (Amaranthus spp.), and other annual weeds. Observations of the effects on the weed population as a whole were made, and individual observations were made for crabgrass, yellow nutsedge, sicklepod, morningglory, and pigweed. Stock solutions of hydrogen cyanamide at 1.25% by weight and citric acid at 5.0% by weight, both in water, were prepared, the hydrogen cyanamide from a phosphate-buffered 50% aqueous solution. […] Data analyses were performed in the same manner as Example 1. The results expressed in weeds per pot are listed in Table XIV for all weeds, Table XV for crabgrass, Table XVI for yellow nutsedge, Table XVII for sicklepod, Table XVIII for morningglory, and Table XIX for pigweed, all at various application rates for hydrogen cyanamide, with and without citric acid.

In the case of `N#CN` [Cyanamide, hydrogen cyanamide], the “Surviving Nematodes: Dorylaimida” value (Dorylaimida nematodes; 12 d after treatment, pre-plant, cyanamide 20 mg/kg soil) is reported as 24 per 100 mL of soil, the “Surviving Nematodes: Dorylaimida” value (Dorylaimida nematodes; 12 d after treatment, pre-plant, cyanamide 40 mg/kg soil) is reported as 20 per 100 mL of soil and the “Surviving Nematodes: Dorylaimida” value (Dorylaimida nematodes; 12 d after treatment, pre-plant, cyanamide 60 mg/kg soil) is reported as 5 per 100 mL of soil. For the same molecule, the “Surviving Nematodes: Dorylaimida” value (Dorylaimida nematodes; 12 d after treatment, pre-plant, cyanamide 80 mg/kg soil) was 6 per 100 mL of soil, the “Surviving Nematodes: Dorylaimida” value (Dorylaimida nematodes; 12 d after treatment, pre-plant, cyanamide 120 mg/kg soil) was 0 per 100 mL of soil and the “Surviving Nematodes: Dorylaimida” value (Dorylaimida nematodes; 57 d after treatment, 45 d after planting, cyanamide 20 mg/kg soil) was 9 per 100 mL of soil. The “Surviving Nematodes: Dorylaimida” value (Dorylaimida nematodes; 57 d after treatment, 45 d after planting, cyanamide 40 mg/kg soil) was 8 per 100 mL of soil, the “Surviving Nematodes: Dorylaimida” value (Dorylaimida nematodes; 57 d after treatment, 45 d after planting, cyanamide 60 mg/kg soil) was 4 per 100 mL of soil and the “Surviving Nematodes: Dorylaimida” value (Dorylaimida nematodes; 57 d after treatment, 45 d after planting, cyanamide 80 mg/kg soil) was 5 per 100 mL of soil. For the same molecule, the “Surviving Nematodes: Dorylaimida” value (Dorylaimida nematodes; 57 d after treatment, 45 d after planting, cyanamide 120 mg/kg soil) was 0 per 100 mL of soil, the “Weeds Per Pot: Yellow Nutsedge” value (yellow nutsedge; 8 d after treatment, cyanamide 75 mg/kg soil) was 1.4 and the “Weeds Per Pot: Yellow Nutsedge” value (yellow nutsedge; 8 d after treatment, cyanamide 150 mg/kg soil) was 0.1. The “Weeds Per Pot: Yellow Nutsedge” value (yellow nutsedge; 14 d after treatment, cyanamide 75 mg/kg soil) was 3.6, the “Weeds Per Pot: Yellow Nutsedge” value (yellow nutsedge; 14 d after treatment, cyanamide 150 mg/kg soil) was 2.4 and the “Weeds Per Pot: Yellow Nutsedge” value (yellow nutsedge; 20 d after treatment, cyanamide 75 mg/kg soil) was 4.6. The “Weeds Per Pot: Yellow Nutsedge” value (yellow nutsedge; 20 d after treatment, cyanamide 150 mg/kg soil) was 3.4, the “Weeds Per Pot: Yellow Nutsedge” value (yellow nutsedge; 27 d after treatment, cyanamide 75 mg/kg soil) was 6.9 and the “Weeds Per Pot: Yellow Nutsedge” value (yellow nutsedge; 27 d after treatment, cyanamide 150 mg/kg soil) was 6.1. For the same molecule, the “Weeds Per Pot: Sicklepod” value (sicklepod; 13 d after treatment, cyanamide 50 mg/kg soil) was 1.3, the “Weeds Per Pot: Sicklepod” value (sicklepod; 13 d after treatment, cyanamide 100 mg/kg soil) was 0.9 and the “Weeds Per Pot: Sicklepod” value (sicklepod; 13 d after treatment, cyanamide 150 mg/kg soil) was 0.3. The “Weeds Per Pot: Sicklepod” value (sicklepod; 13 d after treatment, cyanamide 200 mg/kg soil) was 0, the “Weeds Per Pot: Sicklepod” value (sicklepod; 13 d after treatment, cyanamide 250 mg/kg soil) was 0 and the “Weeds Per Pot: Sicklepod” value (sicklepod; 19 d after treatment, cyanamide 50 mg/kg soil) was 1.7. For the same molecule, the “Weeds Per Pot: Sicklepod” value (sicklepod; 19 d after treatment, cyanamide 100 mg/kg soil) was 0.7, the “Weeds Per Pot: Sicklepod” value (sicklepod; 19 d after treatment, cyanamide 150 mg/kg soil) was 0.4 and the “Weeds Per Pot: Sicklepod” value (sicklepod; 19 d after treatment, cyanamide 200 mg/kg soil) was 0.3. For the same molecule, the “Weeds Per Pot: Sicklepod” value (sicklepod; 19 d after treatment, cyanamide 250 mg/kg soil) was 0, the “Weeds Per Pot: Sicklepod” value (sicklepod; 26 d after treatment, cyanamide 50 mg/kg soil) was 1.6 and the “Weeds Per Pot: Sicklepod” value (sicklepod; 26 d after treatment, cyanamide 100 mg/kg soil) was 0.7. The “Weeds Per Pot: Sicklepod” value (sicklepod; 26 d after treatment, cyanamide 150 mg/kg soil) was 0.4, the “Weeds Per Pot: Sicklepod” value (sicklepod; 26 d after treatment, cyanamide 200 mg/kg soil) was 0.3 and the “Weeds Per Pot: Sicklepod” value (sicklepod; 26 d after treatment, cyanamide 250 mg/kg soil) was 0.1.
